According to patent US20230219904A1 (SYNGENTA CROP PROTECTION AG, priority 2020, published 2023):

What was measured:
Assay type in all cases: in vivo
Conditions in all cases: evaluated after 13 days
[1] = test system: Amaranthus retoflexus (AMARE); experiment: Pre-emergence herbicidal glasshouse test (Table B1)
Summary of the method: (§1)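 Five-point damage scores (1=0-19% through 5=80-100%) were recorded 13 days after spraying. Pre-emergence treatment came one day after sowing, post-emergence after 8 days; rate 500 g/h unless otherwise indicated.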

[2] = test system: Echinochloa crus-galh (ECHCG); experiment: as above
Summary of the method: as §1

[3] = test system: Setaria faberi (SETFA); experiment: as above
Summary of the method: as §1

[4] = test system: Abutilon theophrasti (ABUTH); experiment: as above
Summary of the method: as §1

[5] = test system: Ipomoea hederacea (IPOHE); experiment: as above
Summary of the method: as §1

[6] = test system: Amaranthus retoflexus (AMARE); experiment: Post-emergence herbicidal glasshouse test (Table B1)
Summary of the method: as §1

[7] = test system: Echinochloa crus-galh (ECHCG); experiment: as above
Summary of the method: as §1

[8] = test system: Setaria faberi (SETFA); experiment: as above
Summary of the method: as §1

[9] = test system: Abutilon theophrasti (ABUTH); experiment: as above
Summary of the method: as §1

[10] = test system: Ipomoea hederacea (IPOHE); experiment: as above
Summary of the method: as §1

Row | Structure (SMILES) | PRE Application AMARE, percentage damage on five-point scale ([1]; applied at 500 g/h) | PRE Application ECHCG, percentage damage on five-point scale ([2]; applied at 500 g/h) | PRE Application SETFA, percentage damage on five-point scale ([3]; applied at 500 g/h) | PRE Application ABUTH, percentage damage on five-point scale ([4]; applied at 500 g/h) | PRE Application IPOHE, percentage damage on five-point scale ([5]; applied) | POST Application AMARE, percentage damage on five-point scale ([6]; applied at 500 g/h) | POST Application ECHCG, percentage damage on five-point scale ([7]; applied at 500 g/h) | POST Application SETFA, percentage damage on five-point scale ([8]; applied at 500 g/h) | POST Application ABUTH, percentage damage on five-point scale ([9]; applied at 500 g/h) | POST Application IPOHE, percentage damage on five-point scale ([10]; applied at 500 g/h) | PRE Application AMARE, percentage damage on five-point scale ([1]; applied at 125 g/ha) | PRE Application ECHCG, percentage damage on five-point scale ([2]; applied at 125 g/ha) | PRE Application SETFA, percentage damage on five-point scale ([3]; applied at 125 g/ha) | PRE Application ABUTH, percentage damage on five-point scale ([4]; applied at 125 g/ha) | PRE Application IPOHE, percentage damage on five-point scale ([5]; applied at 125 g/ha) | POST Application AMARE, percentage damage on five-point scale ([6]; applied at 125 g/ha) | POST Application ECHCG, percentage damage on five-point scale ([7]; applied at 125 g/ha) | POST Application SETFA, percentage damage on five-point scale ([8]; applied at 125 g/ha) | POST Application ABUTH, percentage damage on five-point scale ([9]; applied at 125 g/ha) | POST Application IPOHE, percentage damage on five-point scale ([10]; applied at 125 g/ha)
1 | Cn1nnnc1NC(=O)c1ccc(OC(F)(F)F)c(NC(=O)CC2CC2)c1Cl [Compound 1.034] | 5 (5=80-100%) | 5 (5=80-100%) | 5 (5=80-100%) | 5 (5=80-100%) | 4 (4=60-79%) | 5 (5=80-100%) | 5 (5=80-100%) | 5 (5=80-100%) | 5 (5=80-100%) | 5 (5=80-100%) |  |  |  |  |  |  |  |  |  | 
2 | COCC(=O)Nc1c(OC(F)(F)F)ccc(C(=O)Nc2nnnn2C)c1Cl [Compound 1.130] | 5 (5=80-100%) | 2 (2=20-39%) | 1 (1=0-19%) | 4 (4=60-79%) | 1 (1=0-19%) | 5 (5=80-100%) | 5 (5=80-100%) | 5 (5=80-100%) | 5 (5=80-100%) | 4 (4=60-79%) |  |  |  |  |  |  |  |  |  | 
3 | CCC(=O)Nc1c(OC(F)(F)F)ccc(C(=O)Nc2nnnn2C)c1C(F)(F)F [Compound 1.082] |  |  |  |  |  |  |  |  |  |  | 5 (5=80-100%) | 5 (5=80-100%) | 4 (4=60-79%) | 5 (5=80-100%) | 3 (3=40-59%) | 4 (4=60-79%) | 3 (3=40-59%) | 4 (4=60-79%) | 4 (4=60-79%) | 4 (4=60-79%)
4 | CC(=O)N(C)c1c(OC(F)(F)F)ccc(C(=O)Nc2nnc(C)o2)c1Cl [Compound 2.003] | 5 (5=80-100%) | 5 (5=80-100%) | 5 (5=80-100%) | 5 (5=80-100%) | 4 (4=60-79%) | 5 (5=80-100%) | 5 (5=80-100%) | 5 (5=80-100%) | 5 (5=80-100%) | 5 (5=80-100%) |  |  |  |  |  |  |  |  |  | 
5 | Cc1cc(C(=O)Nc2c(OC(F)(F)F)ccc(C(=O)Nc3nnnn3C)c2Cl)no1 [Compound 1.011] | 5 (5=80-100%) | 1 (1=0-19%) | 1 (1=0-19%) | 4 (4=60-79%) | 4 (4=60-79%) | 5 (5=80-100%) | 5 (5=80-100%) | 4 (4=60-79%) | 5 (5=80-100%) | 5 (5=80-100%) |  |  |  |  |  |  |  |  |  | 
6 | CC(=O)Nc1c(OC(F)F)ccc(C(=O)Nc2nnnn2C)c1Cl [Compound 1.090] |  |  |  |  |  |  |  |  |  |  | 5 (5=80-100%) | 5 (5=80-100%) | 4 (4=60-79%) | 5 (5=80-100%) | 4 (4=60-79%) | 4 (4=60-79%) | 4 (4=60-79%) | 4 (4=60-79%) | 4 (4=60-79%) | 4 (4=60-79%)
7 | CC(=O)Nc1c(OC(F)(F)C(F)F)ccc(C(=O)Nc2nnnn2C)c1Cl [Compound 1.031] |  |  |  |  |  |  |  |  |  |  | 5 (5=80-100%) | 4 (4=60-79%) | 3 (3=40-59%) | 4 (4=60-79%) | 3 (3=40-59%) | 4 (4=60-79%) | 4 (4=60-79%) | 4 (4=60-79%) | 4 (4=60-79%) | 4 (4=60-79%)
8 | CC(F)C(=O)Nc1c(OC(F)F)ccc(C(=O)Nc2nnnn2C)c1Cl (stereo not shown) [Compound 1.025] |  |  |  |  |  |  |  |  |  |  | 5 (5=80-100%) | 3 (3=40-59%) | 3 (3=40-59%) | 5 (5=80-100%) | 4 (4=60-79%) | 5 (5=80-100%) | 5 (5=80-100%) | 4 (4=60-79%) | 4 (4=60-79%) | 2 (2=20-39%)
9 | CCn1nnnc1NC(=O)c1ccc(OC(F)(F)F)c(NC(=O)COC)c1Cl [Compound 1.116] | 5 (5=80-100%) | 3 (3=40-59%) | 1 (1=0-19%) | 5 (5=80-100%) | 1 (1=0-19%) | 5 (5=80-100%) | 5 (5=80-100%) | 5 (5=80-100%) | 5 (5=80-100%) | 5 (5=80-100%) |  |  |  |  |  |  |  |  |  | 
10 | Cc1cc(C(=O)Nc2c(OC(F)F)ccc(C(=O)Nc3nnnn3C)c2Cl)no1 [Compound 1.044] |  |  |  |  |  |  |  |  |  |  | 4 (4=60-79%) | 2 (2=20-39%) | 2 (2=20-39%) | 4 (4=60-79%) | 1 (1=0-19%) | 5 (5=80-100%) | 2 (2=20-39%) | 3 (3=40-59%) | 3 (3=40-59%) | 4 (4=60-79%)
